Results as given in US20210038730A1, “PEPTIDE NANOFIBERS” (UNIVERSITY OF PORTSMOUTH HIGHER EDUCATION CORPORATION, priority 2018, published 2021).

What was measured:
[1] = Critical aggregation concentration, pyrene assay; format: physicochemical; settings: PBS pH 7.4, 37° C., 24 hours
Protocol: Critical aggregation concentration (CAC) of TPGnRH was determined using pyrene ^1-4 and thioflavin T ^5, 6. The peptide solutions (3.5-700 μM) were prepared in phosphate-buffered saline (PBS, 0.01 M, pH 7.4) either by a dilution of a stock solution at 700 μM or solutions prepared at the required concentration. In the pyrene assay, pyrene was dissolved in methanol at 250 μM, dispersed into a black 96-well plate, and methanol was evaporated overnight. TPGnRH solutions were added to pyrene and incubated at 37° C. for 24 hours under stirring. Fluorescence spectra was recorded λex at 334 nm. For the thioflavin T assay, peptide solutions were added to freshly prepared thioflavin Tat 50 μM. All peptide samples were incubated during 5 minutes at room temperature and fluorescence was measured at λex at 450 nm and λem at 482 nm.

in vitro = settings: human, tissue homogenate
Protocol: Fresh blood, obtained from adult male Wistar rats, was collected in sterile the 170 I.U. lithium heparin-coated tubes (Vacutainer, BD Bioscience, UK). Blood was centrifuged immediately at 2,000 g for 15 minutes (4° C.) and supernatant was collected and diluted to 50% (v/v) with PBS. Livers and brains were obtained from adult male Wistar rats, and the tissues were blotted to dryness, weighed, sliced into pieces, and homogenised with ice-cold PBS (in 2 mL of buffer g^−1 of tissue) using the glass homogeniser. Then, tissue homogenates were centrifuged at 4,300 g for 1 hour (4° C.) and the supernatants collected. Glioblastoma cell homogenates were prepared using U-87 MG cells. Cells were cultured in Eagle's Minimum Essential Medium (EMEM) supplemented with 10% (v/v) heat-inactivated fetal bovine serum (FBS), 1% (v/v) of non-essential amino acids (NEAA) and 1 mM of sodium pyruvate in T75 flasks with a surface area of 75 cm^2 and maintained in a humidified atmosphere of 5% CO2 at 37° C. Breast cancer cell homogenates were prepared using MDA-MB-231 cells. Cells were cultured in Dulbecco's Modified Eagle Medium (DMEM) supplemented with high levels of glucose (4.5 g/L), 10% (v/v) heat-inactivated fetal bovine serum (FBS), 1% (v/v) of non-essential amino acids (NEAA) and penicillin and streptomycin (500 units/mL) in T75 flasks with a surface area of 75 cm^2 and maintained in a humidified atmosphere of 5% CO2 at 37° C. Media was changed for both cell lines every 3 to 4 days. After reaching confluence, cells were washed twice with Hank's Balanced Salt Solution (HBSS) and incubated with ˜2 mL of TrypLE Enzyme at 37° C. for ˜3 minutes. Then, complete media were added, and cells were centrifuged at 1,000 rpm for 5 minutes in C-28A centrifuge (Boeco, Germany). U-87 MG or MDA-MB-231 cells (˜10×10^6 cells mL^−1) were re-suspended in ice-cold PBS, and homogenised with a 2×5 second pulses with the probe sonicator (UP200S Ultrasonic processor, SciMed, 200 watts, amplitude of 60%). Cell debris were removed by centrifugation at 2,000 rpm for 5 minutes (Jouan B4i, Thermo Scientific, Paisley, UK). Supernatant was collected and stored at −80° C. Total protein concentration in the homogenates was determined using the Bradford assay with bovine serum albumin as a standard. Diluted plasma, tissue or cell homogenates were pre-warmed during ˜30 minutes at 37° C. Peptide stock solutions (Glu-GnRH, goserelin acetate and TPGnRH, 5 mM in PBS, 500 μL) were prepared and added to the homogenate solutions (120 μL). PAX-loaded nanofibers prepared at a ratio of 1:7.36 [PAX:TPGnRH consisting of 3 μmol (2.56 mg mL^−1) of PAX, 22.02 μmol (31.46 mg mL^−1) of TPGnRH], as previously described, and further diluted in PBS to achieve a concentration of 5 mM of TPGnRH and 500 nM of PAX (120 μL) were added to the homogenates. At various time intervals, an aliquot was collected (80 μL) and added to ice-cold ACN (80 μL) to quench the enzymatic activity. Samples were stored at −80° C. for at least 3 hours to maximise protein precipitation. Samples were vortexed for 15 minutes, centrifuged for 15 minutes at 12,000 rpm, and the supernatants were collected and analysed by RP-HPLC.

## CCCCCCCCCCCCCCCC(=O)Oc1ccc(C[C@H](NC(=O)[C@H](CO)NC(=O)[C@H](Cc2c[nH]c3ccccc23)NC(=O)[C@H](Cc2c[nH]cn2)NC(=O)[C@@H](N)CCC(=O)O)C(=O)NCC(=O)N[C@@H](CC(C)C)C(=O)N[C@@H](CCCNC(=N)N)C(=O)N2CCC[C@H]2C(=O)NCC(N)=O)cc1 [TPGnRH, Tyrosine (O-Palmitoyl)-Glu-GnRH]
[1]
  CAC (self-assembly into aggregates): 7 µM
In vitro
  half-life at 4.03 mM: 51.9 ± 8.73 h
